Measured values taken from US20260355182A1, “ISOQUINOLINE DERIVATIVE, SYNTHESIS METHOD THEREFOR, AND USE THEREOF” (Harbin Gloria Pharmaceuticals Co., Ltd., priority 2023, published 2026).

How the values were obtained:
[1] = tested on: SK-N-SH cells; assay: Dose-effect relationship on cellular ATP levels in cultured SK-N-SH cells; assay type: cell-based, human
Description: SK-N-SH cells were seeded in a 6-well plate at a density of 6×10^4 per well. Cells were cultured for 12 hours under 5% O2, and the drug was added. Cells were harvested after 48 hours. Cellular ATP levels were measured using a Promega ATP assay kit. The experiment was repeated 5 times to 7 times.

[2] = tested on: Wild-type mice (C57BL/6); assay: Blood glucose in wild-type mice; assay type: in vivo; settings: 0.1 mg/kg i.p., C57BL/6, fasted 6 hours after administration
Description: Wild-type mice (C57BL/6) aged 3 months to 4 months under normal feeding conditions were intraperitoneally injected with different drugs at 0.1 mg/kg. Mice injected with normal saline served as the control group. Mice were fasted for 6 hours after administration. Blood was collected from the tail of each mouse to measure blood glucose levels. Each group consisted of 9 mice.

[3] = tested on: MPTP-induced Parkinson's disease model mice; assay: MPTP-induced mouse model of Parkinson's disease, rotarod and tyrosine hydroxylase Western blot; assay type: in vivo; settings: terazosin 0.1 mg/Kg
Description: Male mice aged 3 months were used and fed normally. The acute MPTP modeling method (see Sonsalla P K, Heikkila R E. The influence of dose and dosing interval on MPTP-induced dopaminergic neurotoxicity in mice. Eur J Pharmacol 1986; 129(3): 339-45.) was employed. MPTP was injected intraperitoneally four times in total at a dose of 20 mg/kg body weight per injection, with a 2-hour interval between each injection. MPTP was dissolved in normal saline, and the control group received an equal dose of normal saline. T2 was dissolved in DMSO and diluted with normal saline to the desired concentration. Accordingly, equal doses of DMSO and normal saline were administered during the treatment. On the day of MPTP model establishment, mice were administered either T2 (treatment group) or DMSO (control group). Subsequently, mice in all groups were administered the corresponding drugs daily. Mouse behavior was tested using a rotarod (E103, UGO BASILE). First, mice were pre-trained for two consecutive days at a constant speed of 15 revolutions per minute (15 rpm) until they could stay on the rod for more than 60 seconds. On day 7 after MPTP injection, mice were tested on the rotarod in an accelerating mode (2 rpm to 45 rpm). The latency to fall from the rotarod was recorded, and the behavior was monitored by a camera. After the experiment, the mice were sacrificed, and the striatal brain tissue was harvested for Western blot assay. Tyrosine hydroxylase (TH) is a protein specifically expressed in dopaminergic neurons. Therefore, whether dopaminergic neurons were damaged can be determined by Western blot assay using an anti-TH antibody.

[4] = tested on: primary mouse neurons; assay: Cellular status and glucose metabolism-related gene expression in primary mouse neurons; assay type: cell-based; settings: normoxic, 72 h; TZ 10 μM, T6 10 PM (so in the source)
Text: In FIG. 10, A) representative bright-field images show the cellular status of primary neurons after treatment. […] The analyzed genes included G6PD, HK2, LDHA, PDK1, PGK1, and SLC2A1/GLUT1. […] TZ treatment produced a similar but generally more moderate metabolic gene-response profile, including increased LDHA, PDK1, and SLC2A1/GLUT1 expression. […] Error bars indicate variation among measurements. […] The results support the use of T6 or related compounds as agents capable of regulating neuronal metabolic status and glucose metabolism-associated pathways.

[5] = tested on: MPTP-induced Parkinsonian mouse model; assay: MPTP-induced Parkinsonian mouse model, rotarod and TH Western blot (T6); assay type: in vivo; settings: TZ, MPTP 20 mg/kg
Description: Mice were administered MPTP at 20 mg/kg to induce Parkinsonian motor impairment and dopaminergic neuronal injury. […] In FIG. 13, A) motor coordination and endurance were assessed using the rotarod test and are expressed as the time remaining on the rotating rod. […] Actin was used as a loading control. […] Data are presented as mean±error bars, with individual points representing biological replicates. Significance of one-way ANOVA analysis is indicated as P<0.05 (*), P<0.01 (**), and P<0.001 (***).

[6] = tested on: db/db mice; assay: Acute glucose-response assay in non-fasted db/db mice; assay type: in vivo; settings: s.c., 2 h; TZ 0.5, liraglutide 0.6, T6 0.5 mg/Kg
Description: The db/db mice were used to evaluate the glucose-lowering activity of compound T6 in comparison with reference metabolic agents (TZ 0.5 mg/Kg, liraglutide 0.6 mg/Kg, T6 0.5 mg/Kg). In FIG. 15, A) for the acute glucose-response assay, drugs were administered to non-fasted db/db mice. Immediately after drug administration (s. c.), mice were deprived of food and water, and blood glucose levels were measured from tail blood samples 2 h later. The relative percentage change in blood glucose was calculated by comparing glucose levels before and after treatment in the same animal. […] HbA1c levels were then measured using a glycated hemoglobin A1c enzyme-linked immunosorbent assay, also referred to as a mouse HbA1c ELISA assay. […] Data are presented as mean±error bars, with individual circles representing individual animals. Statistical significance is indicated as P<0.001 (**) and P<0.0001 (***).

[7] = tested on: phosphoglycerate kinase 1 (Pgk1); settings: cited from earlier work
[8] = tested on: mouse and rat models of Parkinson's disease, Alzheimer's disease, multiple system atrophy; settings: cited from earlier work
[9] = tested on: diabetic patients; settings: cited from earlier work
[10] = tested on: rats; settings: combined administration of terazosin and propranolol; cited from earlier work
[11] = tested on: patients; settings: cited from earlier work
[12] = target: T1, Pgk1 (Homo sapiens, UniProt P00558); assay: In vitro biochemical Pgk1 enzymatic activity assay (NADH production); design: GAPDH-coupled NADH assay; settings: 1.6 mM GAP, 1 mM β-NAD, 1 mM ADP, 20 ng/μL GAPDH, pH 8.6, 10 minutes
T1 sequence (P00558 1-417): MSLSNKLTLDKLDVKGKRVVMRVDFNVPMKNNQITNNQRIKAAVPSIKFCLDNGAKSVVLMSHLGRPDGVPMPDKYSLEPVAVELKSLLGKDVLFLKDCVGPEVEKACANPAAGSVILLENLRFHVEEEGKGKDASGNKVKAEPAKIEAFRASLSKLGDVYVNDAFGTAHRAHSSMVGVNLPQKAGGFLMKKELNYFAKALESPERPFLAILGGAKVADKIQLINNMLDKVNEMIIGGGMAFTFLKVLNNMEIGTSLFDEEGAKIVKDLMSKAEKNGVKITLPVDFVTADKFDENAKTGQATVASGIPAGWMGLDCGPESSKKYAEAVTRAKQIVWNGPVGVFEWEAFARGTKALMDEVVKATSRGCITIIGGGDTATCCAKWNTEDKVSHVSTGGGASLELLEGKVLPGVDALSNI
Description: Human Pgk1 cDNA was cloned into the pEASYTM-E2 vector (TransGen Biotech) containing a His tag. Protein expression was induced in BL21(DE3) chemocompetent cells (TransGen Biotech) with 0.5 mM IPTG. After lysing cells in extraction buffer (20 mM sodium phosphate, 500 mM NaCl, 5 mM imidazole, 5% glycerol, protease inhibitor cocktail, pH 7.9), the supernatant was purified with nickel beads (AdarBiotech). The His-tagged Pgk1 was eluted with the elution buffer (20 mM sodium phosphate, 500 mM NaCl, 80 mM imidazole, protease inhibitor cocktail, pH 7.9). The activity of Pgk1 can be measured by monitoring the rate of NADH production, as NADH accumulated as the reaction proceeded. Purified Pgk1-His protein ([…]) was added to the reaction buffer (20 mM Tris, 100 mM NaCl, 2 mM DTT, 0.1 mM MgSO4, 10 mM NaHPO4, pH 8.6), and the substrates (1.6 mM GAP, 1 mM β-NAD, 1 mM ADP, 20 ng/μL GAPDH) was added. […] After reaction for 10 minutes at room temperature, the absorbance wavelength at 339 nm was measured using a microplate reader (Molecular Devices, SpectraMax i3x), and this wavelength corresponds to NADH levels.

- Concentration for best activation of Pgk1 ([12]; role: activator): 1 µM
- Effect on Pgk1 enzymatic activity at high concentration ([12]; role: inhibitor, 100 μM): can inhibit Pgk1 enzymatic activity
SMILES: COc1cc2nc(N3CCN(C(=O)C4CCCO4)CC3)nc(N)c2cc1OC (stereo not drawn) [Terazosin, terazosin]
- Inhibition of cell growth ([1]; 50 μM, SK-N-SH cells): a tendency to inhibit cell growth
- Optimal dose for cellular ATP levels ([1]; doses 5, 10 and 50 μM, 48 hours, 5% O2): 10 µM
- Hypoglycemic effect [2]: did not exhibit a hypoglycemic effect
- Motor ability (rotarod) ([3]; day 7 after MPTP): improved the motor ability of mice
- Tyrosine hydroxylase level / dopaminergic neurons ([3]; striatum, Western blot): exerted a protective effect on dopaminergic neurons
- Neuronal cellular morphology/status [4]: detectable changes in neuronal cellular morphology/status
- Rotarod performance (TZ) [5]: weaker improvement
- Acute change in blood glucose [6]: weaker acute effect
- Effect on Pgk1, high concentration ([7]; high concentrations): can inhibit Pgk1
- Effect on Pgk1, low concentration ([7]; low concentrations): can activate Pgk1
- Binding to / activation of Pgk1 ([7]; previous studies): can activate Pgk1
- Dissociation of ATP from Pgk1 protein ([7]; published studies): promoted the dissociation of ATP from the Pgk1 protein
- Therapeutic and prophylactic effects [8]: exerts therapeutic and prophylactic effects
- Blood glucose and lipid levels [9]: efficacy is extremely limited or ineffective
- Blood glucose in rats [10]: did not affect blood glucose in rats
- Side effects [11]: intraoperative floppy iris syndrome (IFIS), hypotension, fatigue, dizziness, syncope, and blurred vision
